Laboratory results: patent US7407988B2, “Carbamic acid compounds comprising a sulfonamide linkage as HDAC inhibitors” (Topotarget UK Limited, priority 2000, dated 2008)
pIC50: −log10 of the molar value. Read-outs that look alike come from different tables or passages of the source.

Legend:
[1] = tested on: K11 HPV E7 transformed human keratinocyte line; test: Secondary assay: cell proliferation WST-1, K11; format: cell-based; conditions: Table 2, 48 h, read-out: Cell Proliferation Inhibition WST-1 (IC50 unless otherwise specified) K11
JURKAT human T-cell line = test: Secondary assay: cell proliferation WST-1, Jurkat; format: cell-based; conditions: Table 2, 48 h, read-out: Cell Proliferation Inhibition WST-1 (IC50 unless otherwise specified) Jurkat
[2] = tested on: NHEK-Ad primary human adult keratinocyte line; test: Secondary assay: cell proliferation WST-1, NHEK-Ad; format: cell-based; conditions: Table 2, NHEK-AD, 48 h, read-out: Cell Proliferation Inhibition WST-1 (IC50 unless otherwise specified) NHEK-AD
HeLa cells = test: Secondary assay: cell proliferation WST-1, HeLa; format: cell-based; conditions: Homo sapiens, Table 2, 48 h, read-out: Cell Proliferation Inhibition WST-1 (IC50 unless otherwise specified) HeLa
HDAC (HeLa cell extract) = test: Primary assay: deacetylase activity, HeLa cell extract as source of HDAC; format: biochemical, human
Text: Briefly, this assay relies on the release of radioactive acetate from a radioactively labelled histone fragment by the action of HDAC enzyme. Test compounds, which inhibit HDAC, reduce the yield of radioactive acetate. Signal (e.g., scintillation counts) measured in the presence and absence of a test compound provide an indication of that compound's ability to inhibit HDAC activity. Decreased activity indicates increased inhibition by the test compound.
The histone fragment was an N-terminal sequence from histone H4, and it was labelled with radioactively labelled acetyl groups using tritiated acetylcoenzyme A (coA) in conjunction with an enzyme which is the histone acetyltransferase domain of the transcriptional coactivator p300. […] The acetylated peptide was then separated from free acetyl coA by size exclusion chromatography on Sephadex G-15 (Sigma G-15-120), using distilled H2O as the mobile phase.
After purification of the radiolabelled histone fragment, it was incubated with a source of HDAC (e.g., an extract of HeLa cells (a rich source of HDAC), recombinantly produced HDAC1 or HDAC2) and any released acetate was extracted into an organic phase and quantitatively determined using scintillation counting. By including a test compound with the source of HDAC, that compound's ability to inhibit the HDAC was determined.
Two cell volumes of extraction buffer were used, and particulate material was centrifuged out (20800 g, 4° C., 10 min). The supernatant extract having deacetylase activity was aliquotted and frozen for storage.
A source of HDAC (e.g., 2 μL of crude HeLa extract, 5 μL of HDAC1 or HDAC2; in elution buffer, as above) was incubated with 3 μL of radioactively labelled peptide along with appropriate dilutions of candidate compounds (1.5 μL) in a total volume of 150 μL of buffer (20 mM Tris pH 7.4, 10% glycerol). The reaction was carried out at 37° C. for one hour, after which the reaction was stopped by adding 20 μL of 1 M HCl/0.4 M sodium acetate. […] Radioactivity was measured using a Tri-Carb 21 00TR Liquid Scintillation Analyzer (Packard).
Percent activity (% activity) for each test compound was calculated as: % activity={(S^C−B)/(S°−B)}×100 wherein S^C denotes signal measured in the presence of enzyme and the compound being tested, S° denotes signal measured in the presence of enzyme but in the absence of the compound being tested, and B denotes the background signal measured in the absence of both enzyme and compound being tested.

[3] = Table 1, read-out: HDAC Inhibition (IC50 unless otherwise specified) HeLa
[4] = comparative tables, HDAC inhibition, read-out: HeLa IC50

Row | Structure (SMILES) | pIC50 [1] | pIC50 (JURKAT human T-cell line) | pIC50 [2] | pIC50 ([1]; Homo sapiens, Keratinocyte) | pIC50 (HeLa cells) | pIC50 (JURKAT human T-cell line; Homo sapiens) | pIC50 ([2]; Homo sapiens, Keratinocyte) | pIC50 (HDAC (HeLa cell extract); [3]) | melting point | pIC50 (HDAC (HeLa cell extract); [4])
1 | Nc1ccccc1NC(=O)c1ccc(CNC(=O)OCc2cccnc2)cc1 [MS-275, reference compound] | 5.04 | 6.44 | 5.51 |  |  |  |  |  |  | 
2 | O=C(/C=C/c1cccc(S(=O)(=O)Nc2ccccc2)c1)NO [PX105684, N-Hydroxy-3-(3-phenylsulfamoylphenyl)acrylamide] |  |  |  | 5.62 | 5.66 | 6.70 | 5.82 |  |  | 
3 | O=C(CCCCCCCS(=O)(=O)Nc1ccccc1)NO [PX117245] |  |  |  |  | 6.51 | 5.96 | 6.28 | 7.80 | 87 to 88 °C | 
4 | O=C(/C=C/c1cccc(NS(=O)(=O)/C=C/c2ccccc2)c1)NO [PX117446, N-Hydroxy-3-{3-[(E)-2-phenylethenesulfonylamino]phenyl}acrylamide] |  |  |  | 5.43 | 5.22 | 6.37 |  | 7.74 | 171 °C | 7.74
5 | O=C(/C=C/C#Cc1ccc(S(=O)(=O)Nc2ccccc2)cc1)NO [PX117453, E-5-(4-Phenylsulfamoylphenyl)pent-2-en-4-ynoic acid hydroxyamide] |  |  |  | 5.38 | 5.24 | 5.96 |  | 7.35 | 161 to 163 °C | 7.35
6 | O=C(/C=C/c1cccc(S(=O)(=O)NCc2ccco2)c1)NO [PX117710, 3-{3-[(Furan-2-ylmethyl)-sulfamoyl]-phenyl}-N-hydroxyacrylamide] |  |  |  | 5.40 | 5.30 | 6.38 |  | 6.90 | 165 °C | 
7 | COc1cccc(NS(=O)(=O)c2cccc(/C=C/C(=O)NO)c2)c1 [PX117712, N-Hydroxy-3-[3-(3-methoxy-phenylsulfamoyl)-phenyl]-acrylamide] |  |  |  | 6.19 | 5.96 | 6.89 |  | 7.85 | 137 °C | 
8 | O=C(/C=C/c1cccc(S(=O)(=O)Nc2ccc(-c3ccccc3)cc2)c1)NO [PX117715, 3-[3-(Biphenyl-4-ylsulfamoyl)-pheny]-N-hydroxy-acrylamide] |  |  |  | 6.03 | 5.82 | 6.54 |  | 8.00 | 188 °C | 
9 | O=C(/C=C/c1cccc(S(=O)(=O)Nc2cccc(Br)c2)c1)NO [PX117734, 3-[3-(3-Bromo-phenylsulfamoyl)-phenyl]-N-hydroxy-acrylamide] |  |  |  | 6.06 | 5.68 | 7.10 |  | 8.10 | 135.5 to 136.5 °C | 
10 | O=C(/C=C/c1cccc(S(=O)(=O)NC(c2ccccc2)c2ccccc2)c1)NO [PX117773, 3-[3-(Benzhydryl-sulfamoyl)-phenyl]-N-hydroxy-acrylamide] |  |  |  | 5.21 | 5.47 | 5.92 |  | 7.17 | 180 °C | 
11 | O=C(/C=C/c1cccc(S(=O)(=O)NC(Cc2ccccc2)c2ccccc2)c1)NO (stereo not drawn) [PX117774, 3-[3-(1,2-Diphenyl-ethylsulfamoyl)-phenyl]-N-hydroxy-acrylamide] |  |  |  | 5.15 | 5.19 | 6.00 |  | 6.40 | 150 °C | 
12 | O=C(/C=C/c1cccc(S(=O)(=O)Nc2ccc(OC(F)(F)F)cc2)c1)NO [PX117775, N-Hydroxy-3-[3-(4-trifluoromethoxy-phenylsulfamoyl)-phenyl]-acrylamide] |  |  |  | 5.28 | 5.68 | 6.28 |  | 7.80 | 131 °C | 
13 | COc1ccc(S(=O)(=O)Nc2cccc(/C=C/C(=O)NO)c2)cc1OC [PX117780, 3-[3-(3,4-Dimethoxy-benzenesulfonylamino)-phenyl]-N-hydroxy-acrylamide] |  |  |  | 4.98 | 4.77 | 5.40 |  | 6.90 | 158 °C | 
14 | O=C(/C=C/c1cccc(NS(=O)(=O)c2ccc(-c3ccccc3)cc2)c1)NO [PX117781, 3-[3-(Biphenyl-4-sulfonylamino)-phenyl]-N-hydroxy-acrylamide] |  |  |  | 5.66 | 5.47 | 6.10 |  | 7.24 | 115 °C | 
15 | COc1ccc(NS(=O)(=O)c2cccc(/C=C/C(=O)NO)c2)cc1OC [PX117782, 3-[3-(3,4-Dimethoxy-phenylsulfamoyl)-phenyl]-N-hydroxy-acrylamide] |  |  |  | 4.81 | 5.54 | 6.46 |  | 7.42 | 191 °C | 
16 | O=C(/C=C/c1cccc(S(=O)(=O)Nc2ccccc2F)c1)NO [PX117787, 3-[3-(2-Fluoro-phenylsulfamoyl)-phenyl]-N-hydroxy-acrylamide] |  |  |  | 5.92 | 5.59 | 6.30 |  | 7.17 | 102 to 103 °C | 
17 | O=C(/C=C/c1cccc(S(=O)(=O)Nc2cccc(F)c2)c1)NO [PX117788, 3-[3-(3-Fluoro-phenylsulfamoyl)-phenyl]-N-hydroxy-acrylamide] |  |  |  | 5.77 | 5.70 | 6.54 |  | 7.44 | 130 to 133 °C | 
18 | O=C(/C=C/c1cccc(S(=O)(=O)Nc2ccc(OC(F)F)cc2)c1)NO [PX117789, 3-[3-(4-Difluoromethoxy-phenylsulfamoyl)-phenyl]-N-hydroxy-acrylamide] |  |  |  | 6.10 | 5.96 | 6.52 |  | 7.52 | 91 to 93 °C | 
19 | COc1ccc(C(F)(F)F)cc1NS(=O)(=O)c1cccc(/C=C/C(=O)NO)c1 [PX117791, N-Hydroxy-3-[3-(2-methoxy-5-trifluoromethyl-phenylsulfamoyl)-phenyl]-acrylamide] |  |  |  | 5.17 | 5.44 | 5.89 |  | 6.60 | 207 °C (dec.) | 
20 | O=C(/C=C/c1ccc(S(=O)(=O)Nc2ccc(-c3ccccc3)cc2)cc1)NO [PX117792, N-Hydroxy-3-[4-(biphenyl-4-ylsulfamoyl)-phenyl]-acrylamide] |  |  |  | 6.40 | 5.85 | 6.37 |  | 7.32 | 211 to 211.5 °C | 
21 | O=C(/C=C/c1ccc(NS(=O)(=O)c2ccc(-c3ccccc3)cc2)cc1)NO [PX117793, (E)-N-Hydroxy-3-[4-(4-biphenylsulfonylamino)-phenyl]-2-propenamide] |  |  |  | 5.57 | 5.70 | 6.30 |  | 7.30 | 190 to 191.5 °C | 
22 | COc1ccc(S(=O)(=O)Nc2ccc(/C=C/C(=O)NO)cc2)cc1OC [PX117794, (E)-N-Hydroxy-3-[4-(3,4-dimethoxyphenylsulfonylamino)-phenyl]-2-propenamide] |  |  |  | 5.64 | 5.48 | 6.22 |  | 7.62 | 178.5 to 179 °C | 
23 | O=C(/C=C/c1ccc(S(=O)(=O)Nc2ccc(Br)cc2)cc1)NO [PX117795, N-Hydroxy-3-[4-(4-bromo-phenylsulfamoyl)-phenyl]-acrylamide] |  |  |  | 5.82 | 5.47 | 6.29 |  | 7.89 | 219 to 220.5 °C | 
24 | CCn1c2ccccc2c2cc(NS(=O)(=O)c3cccc(/C=C/C(=O)NO)c3)ccc21 [PX117798] |  |  |  | 6.46 | 6.05 | 5.44 |  | 7.30 | 130 to 133 °C | 
25 | CC(/C=C/C(=O)NO)=C\[C@@H](C)C(=O)c1ccc(N(C)C)cc1 [TSA, trichostatin A, reference compound] |  |  |  | 6.42 | 6.46 | 7.38 | 6.70 |  |  | 
